Experimental findings from patent US20220340566A1, “BENZYL AMINE-CONTAINING 5,6-HETEROAROMATIC COMPOUNDS USEFUL AGAINST MYCOBACTERIAL INFECTION” (priority 2019, published 2022) are described below.

Structures are written as SMILES. Like-named read-outs stand apart in the source and are kept apart here.

Data set [1] can be described thus: Metabolic stability test in pooled human liver microsomes. Type of data set: in vitro ADME. The conditions noted are these: human liver microsomes 0.5 mg protein/mL, 1 mmol/L NADPH, 37° C., 30 minutes. In outline:
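Remaining-rate readout: parent compound left after 30 min versus 0 min (set as 100%), measured by LC/MS/MS or SPE/MS. Oxidative reaction ran at 37° C. with 1 mmol/L NADPH, 0.5 mg protein/mL pooled human microsomes, 50 mmol/L Tris-HCl pH 7.4 buffer.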

The subject of data set [2] is Mycobacterium avium ATCC700898. Nature of the data set: Determination of IC85 against M. avium (resazurin fluorescence). The note with it: 37° C., 3 days incubation then resazurin, fluorescence one day later. Type of data set: cell-based.
Where [3] appears, read: Mycobacterium avium, ATCC700898, M. avium ATCC700898, CAMHB medium, read-out: IC85.

With `CCOc1ccc(N2CCN(c3ccc(CNC(=O)c4c(CC)nc5ccc(Cl)cn45)cc3F)C[C@@H]2C)cc1` [Compound I-1-44], the “MS_h_% (remaining amount of compound after reaction, 0 minute = 100%)” value in data set [1] stood at 69%. In data set [2] (setting [3]), the IC85 was determined as 11 nM.
As for `CCCCOc1ccc(N2CCC(c3ccc(CNC(=O)c4c(CC)nc5cc(F)ccn45)c(F)c3)CC2)cc1.Cl` [Compound I-1-151], the “MS_h_% (remaining amount of compound after reaction, 0 minute = 100%)” value in data set [1] came out at 88%. Moreover, the IC85 in data set [2] (setting [3]) came to 10 nM.
For the compound `Cc1cn2c(C(=O)NCc3ccc(C4CCN(c5ccc(OC(F)(F)F)cc5)CC4)c(F)c3)c(C)nc2s1` [Compound I-3-31], the “MS_h_% (remaining amount of compound after reaction, 0 minute = 100%)” value in data set [1] stood at 73.9%. In data set [2] (setting [3]), the IC85 was 330 nM.
With `[2H]c1c(C([2H])([2H])[2H])c([2H])n2c(C(=O)NCc3ccc(-c4ccc(C(F)(F)F)cc4)cc3)c(C)nc2c1[2H]` [Compound I-3-11], in data set [1], the “MS_h_% (remaining amount of compound after reaction, 0 minute = 100%)” value amounted to 84.7%. The IC85 in data set [2] (setting [3]) amounted to 2.8 nM.
Consider `Cc1ccn2c(C(=O)NCc3ccc(Oc4ccc(C(F)(F)F)cc4)cc3)c(C)nc2c1` [Compound I-3-19], for which, in data set [1], the “MS_h_% (remaining amount of compound after reaction, 0 minute = 100%)” value is 80.9%. In addition, the IC85 in data set [2] (setting [3]) amounted to 440 nM.
For the compound `CCc1nc2cc(C)c(Cl)cn2c1C(=O)NCc1ccc(N2CCN(c3ccc(OC(F)(F)F)cc3)[C@@H](C)C2)c(F)c1` [Compound I-1-48], the “MS_h_% (remaining amount of compound after reaction, 0 minute = 100%)” value in data set [1] was 69%. Also, in data set [2] (setting [3]), the IC85 is 35 nM.
In the same order, the values of `CCc1nc2cc(F)ccn2c1C(=O)NCc1ccc(N2CCN(c3ccc(OC(F)(F)F)cc3)[C@@H](C)C2)c(Cl)c1.Cl` [Compound I-1-141] are 93% and 2 nM.
In the case of `CCOc1ccc(N2CCN(c3ccc(CNC(=O)c4c(CC)nc5ccc(Cl)cn45)cc3F)C[C@@H]2C)cc1F.Cl` [Compound I-1-53], in data set [1], the “MS_h_% (remaining amount of compound after reaction, 0 minute = 100%)” value was found to be 65%. In addition, the IC85 in data set [2] (setting [3]) amounted to 37 nM.
The like results for `Cc1nc2cnccn2c1C(=O)NCc1ccc(N2CCN(c3ccc(OC(F)(F)F)cc3)CC2)c(F)c1` [Compound I-3-48] were, in that order, 60.4% and 660 nM.
In the same order, the values of `Cc1ccn2c(C(=O)NCc3ccc(N4CCN(c5ccc(OC(F)(F)F)cc5)C(C)(C)C4)c(F)c3)c(C)nc2c1` [Compound I-1-31] are 82% and 140 nM.
With `CCc1nc2ccc(F)cn2c1C(=O)NCc1ccc(N2CCN(c3ccc(OC(F)(F)F)cc3)[C@@H](C)C2)c(F)c1` [Compound I-1-34], the “MS_h_% (remaining amount of compound after reaction, 0 minute = 100%)” value in data set [1] was found to be 65%. Further, the IC85 in data set [2] (setting [3]) turned out to be 8 nM.
On to `CCc1nc2ccc(Cl)cn2c1C(=O)NCc1ccc(N2CCN(c3ncc(C(F)(F)F)cc3F)[C@@H](C)C2)c(F)c1.Cl` [Compound I-1-99], for which the “MS_h_% (remaining amount of compound after reaction, 0 minute = 100%)” value in data set [1] came to 77%. Further, in data set [2] (setting [3]), the IC85 amounted to 35 nM.
As for `CCc1nc2ccc(Cl)cn2c1C(=O)NCc1ccc(C2CCN(c3ccc(OCC4CC4)cn3)CC2)c(F)c1.Cl` [Compound I-1-77], the “MS_h_% (remaining amount of compound after reaction, 0 minute = 100%)” value in data set [1] was 59%. Besides, the IC85 in data set [2] (setting [3]) was determined as 22 nM.
Turning to `CCc1nc2ccc(Cl)cn2c1C(=O)NCc1ccc(N2CCN(c3ccc(OCC4CC4)cc3)[C@@H](C)C2)cc1F.Cl` [Compound I-1-102], the “MS_h_% (remaining amount of compound after reaction, 0 minute = 100%)” value in data set [1] was 75%. Moreover, the IC85 in data set [2] (setting [3]) worked out at 24 nM.
Take `Cc1ccn2nc(C)c(C(=O)NCc3ccc(C4CCN(c5ccc(OC(F)(F)F)cc5)CC4)c(F)c3)c2c1.Cl` [Compound I-1-72]: in data set [1], the “MS_h_% (remaining amount of compound after reaction, 0 minute = 100%)” value stood at 87%. Also, the IC85 in data set [2] (setting [3]) was 66 nM.
As for `Cc1nc2ccc(F)cn2c1C(=O)NCc1ccc(N2CCN(c3ccc(OC(F)(F)F)cc3)[C@@H](C)C2)c(F)c1` [Compound I-1-26], in data set [1], the “MS_h_% (remaining amount of compound after reaction, 0 minute = 100%)” value was 93%. In addition, the IC85 in data set [2] (setting [3]) was found to be 15 nM.
The like results for `CCc1nc2cc(F)ccn2c1C(=O)NCc1ccc(N2CCN(c3ccc(OCC(F)(F)F)nc3)[C@@H](C)C2)c(F)c1.Cl` [Compound I-1-116] were, in that order, 87% and 11 nM.
Regarding `Cc1nc2ccc(Cl)cn2c1C(=O)NCc1ccc(N2C[C@H](C)N(c3ccc(OC(F)(F)F)cc3)C[C@H]2C)c(F)c1` [Compound I-1-40], the “MS_h_% (remaining amount of compound after reaction, 0 minute = 100%)” value in data set [1] was 89%. Besides, the IC85 in data set [2] (setting [3]) was determined as 22 nM.
`Cc1cn2c(C(=O)NCc3ccc(N4CCN(c5ccc(OC(F)(F)F)cc5)C(C)(C)C4)c(F)c3)c(C)nc2s1` [Compound I-3-14]: in data set [1], the “MS_h_% (remaining amount of compound after reaction, 0 minute = 100%)” value amounted to 82.7%. For the same compound, the IC85 in data set [2] (setting [3]) came out at 190 nM.
Regarding `C[C@H]1CN(c2ccc(CNC(=O)c3c(C(F)(F)F)nc4ccc(Cl)cn34)cc2F)CCN1c1ccc(OC(F)(F)F)cc1` [Compound I-1-29], the “MS_h_% (remaining amount of compound after reaction, 0 minute = 100%)” value in data set [1] was found to be 89%. The IC85 in data set [2] (M. avium ATCC700898, CAMHB medium) amounted to 2.7 nM.
Consider `Cc1cn2c(C(=O)NCc3ccc(N4CCC5(CCN(c6ccc(C(F)(F)F)cc6)CC5)CC4)c(F)c3)c(C)nc2s1` [Compound I-3-10], for which the “MS_h_% (remaining amount of compound after reaction, 0 minute = 100%)” value in data set [1] is 84.9%. Further, in data set [2] (setting [3]), the IC85 turned out to be 29 nM.
For the compound `CCc1nc2ccc(Cl)cn2c1C(=O)NCc1ccc(C2=C[C@H](C)N(c3ccc(OC(F)(F)F)cc3)CC2)c(F)c1.Cl` [Compound I-1-107], the “MS_h_% (remaining amount of compound after reaction, 0 minute = 100%)” value in data set [1] is 71%. Besides, the IC85 in data set [2] (setting [3]) worked out at 7 nM.
With `CCc1nc2cc(F)ccn2c1C(=O)NCc1ccc(O[C@H]2C[C@H](Oc3ccc(OC(F)(F)F)cc3)C2)c(F)c1.Cl` [Compound I-3-1], in data set [1], the “MS_h_% (remaining amount of compound after reaction, 0 minute = 100%)” value is recorded as 99.1%. The IC85 in data set [2] (setting [3]) stood at 54 nM.
The like results for `Cc1cn2c(C(=O)NCc3ccc(-c4ccc(OC(C)C)cc4)c(F)c3)c(C)nc2s1` [Compound I-3-22] were, in that order, 78.5% and 370 nM.
As for `Cc1ccn2c(C(=O)NCc3ccc(N4C[C@H](C)N(c5ccc(OC(F)(F)F)cc5)C[C@H]4C)c(F)c3)c(C)nc2c1` [Compound I-1-41], in data set [1], the “MS_h_% (remaining amount of compound after reaction, 0 minute = 100%)” value is on record as 86%. Also, the IC85 in data set [2] (setting [3]) was determined as 180 nM.
In the same order, the values of `Cc1nc2ccc(Cl)cn2c1C(=O)NCc1ccc(N2C[C@H](C)N(c3ccc(OCC(F)(F)F)nc3)C[C@H]2C)c(F)c1.Cl` [Compound I-1-137] are 91% and 100 nM.
Regarding `CCOc1ccc(N2CCN(c3ccc(CNC(=O)c4c(CC)nc5cc(F)ccn45)cc3F)C[C@@H]2C)cc1.Cl` [Compound I-1-109], the “MS_h_% (remaining amount of compound after reaction, 0 minute = 100%)” value in data set [1] is 80%. In addition, the IC85 in data set [2] (setting [3]) was found to be 7.1 nM.
With `COc1ccn2nc(C)c(C(=O)NCc3ccc(N4CCC(c5ccc(OC(F)(F)F)cc5)CC4)cc3)c2c1` [Compound I-3-8], in data set [1], the “MS_h_% (remaining amount of compound after reaction, 0 minute = 100%)” value was 87.1%. The IC85 in data set [2] (setting [3]) was 28 nM.
On to `Cc1cn2c(C(=O)NCc3ccc(N4CCN(c5ccc(OC(F)(F)F)cc5)[C@@H](C)C4)c(Cl)c3)c(C)nc2s1.Cl` [Compound I-3-29], for which the “MS_h_% (remaining amount of compound after reaction, 0 minute = 100%)” value in data set [1] is on record as 75.1%. Moreover, in data set [2] (setting [3]), the IC85 was 61 nM.
In the same order, the values of `[2H]c1c(C([2H])([2H])[2H])c([2H])n2c(C(=O)NCc3ccc(Oc4cccc(C(F)(F)F)c4)cc3)c(C)nc2c1[2H]` [Compound I-3-15] are 82.4% and 230 nM.
